From ChEMBL document CHEMBL4152235, “Synthesis, anionophoric activity and apoptosis-inducing bioactivity of benzimidazolyl-based transmembrane anion transporters” (Eur J Med Chem, 2018)
One block for each molecule: values may come before it. Calls of active or inactive are those of the source. The rule behind the calls is not given here.

Legend:
[1] = Binding affinity to chloride ion assessed as 1:1 compound-Cl- complex formation at 4.1 mM using tetra(n-butyl)ammonium chloride by ESI MS spectrometric method
[2] = Binding affinity to chloride ion at 1.5 x 10^-5M using tetra(n-butyl)ammonium chloride measured after 5 mins by spectrophotometric titration method
[3] = (§1) Ionophoric activity across pyranine dye encapsulated pH 7 egg yolk L-alpha-phosphatidylcholine-based liposomal membranes assessed as chloride ion transport by measuring induction of pH discharge after 20 mins in presence of NaCl loaded external vesicles by fluorescence method
[4] = as §1, with “measuring initial rate constant for” for “measuring”, “discharge at 4.88 x 10^-4 mol%” for “discharge”, “method (reference value: 5.03 +/- 1.02 10^-3/min)” for “method”
[5] = as §1, with “measuring initial rate constant for” for “measuring”, “discharge at 9.77 x 10^-4 mol%” for “discharge”, “method (reference value: 5.03 +/- 1.02 10^-3/min)” for “method”
[6] = as §1, with “measuring initial rate constant for” for “measuring”, “discharge at 1.95 x 10^-3 mol%” for “discharge”, “method (reference value: 5.03 +/- 1.02 10^-3/min)” for “method”
[7] = as §1, with “measuring initial rate constant for” for “measuring”, “discharge at 3.91 x 10^-3 mol%” for “discharge”, “method (reference value: 5.03 +/- 1.02 10^-3/min)” for “method”
[8] = as §1, with “measuring initial rate constant for” for “measuring”, “discharge at 7.81 x 10^-3 mol%” for “discharge”, “method (reference value: 5.03 +/- 1.02 10^-3/min)” for “method”
[9] = as §1, with “measuring initial rate constant for” for “measuring”, “discharge at 1.56 x 10^-2 mol%” for “discharge”, “method (reference value: 5.03 +/- 1.02 10^-3/min)” for “method”
[10] = Ionophoric activity across pyranine dye encapsulated pH 7 egg yolk L-alpha-phosphatidylcholine-based liposomal membranes assessed as chloride ion transport by measuring induction of pH discharge after 20 mins in presence of NaCl loaded external vesicles by fluorescence method relative to m-Bimbe
[11] = Ionophoric activity across pyranine dye encapsulated pH 7 egg yolk L-alpha-phosphatidylcholine-based liposomal membranes assessed as chloride ion transport by measuring induction of pH discharge at 1.95 x 10^-3 mol% after 20 mins in presence of LiCl loaded external vesicles by fluorescence method
[12] = Ionophoric activity across pyranine dye encapsulated pH 7 egg yolk L-alpha-phosphatidylcholine-based liposomal membranes assessed as chloride ion transport by measuring induction of pH discharge at 1.95 x 10^-3 mol% after 20 mins in presence of NaCl loaded external vesicles by fluorescence method
[13] = Ionophoric activity across pyranine dye encapsulated pH 7 egg yolk L-alpha-phosphatidylcholine-based liposomal membranes assessed as chloride ion transport by measuring induction of pH discharge at 1.95 x 10^-3 mol% after 20 mins in presence of KCl loaded external vesicles by fluorescence method
[14] = Ionophoric activity across pyranine dye encapsulated pH 7 egg yolk L-alpha-phosphatidylcholine-based liposomal membranes assessed as chloride ion transport by measuring induction of pH discharge at 1.95 x 10^-3 mol% after 20 mins in presence of RbCl loaded external vesicles by fluorescence method
[15] = Ionophoric activity across pyranine dye encapsulated pH 7 egg yolk L-alpha-phosphatidylcholine-based liposomal membranes assessed as chloride ion transport by measuring induction of pH discharge at 1.95 x 10^-3 mol% after 20 mins in presence of CsCl loaded external vesicles by fluorescence method
[16] = Ionophoric activity across pyranine dye encapsulated pH 7 egg yolk L-alpha-phosphatidylcholine-based liposomal membranes assessed as iodide ion transport by measuring induction of pH discharge at 1.95 x 10^-3 mol% after 20 mins in presence of NaI loaded external vesicles by fluorescence method
[17] = Ionophoric activity across pyranine dye encapsulated pH 7 egg yolk L-alpha-phosphatidylcholine-based liposomal membranes assessed as nitrate ion transport by measuring induction of pH discharge at 1.95 x 10^-3 mol% after 20 mins in presence of NaNO3 loaded external vesicles by fluorescence method
[18] = Ionophoric activity across pyranine dye encapsulated pH 7 egg yolk L-alpha-phosphatidylcholine-based liposomal membranes assessed as bromide ion transport by measuring induction of pH discharge at 1.95 x 10^-3 mol% after 20 mins in presence of NaBr loaded external vesicles by fluorescence method
[19] = Ionophoric activity across lucigenin probe encapsulated pH 7 egg yolk L-alpha-phosphatidylcholine-based large unilamellar vesicles loaded with Na2SO4 assessed as chloride ion efflux at 1.56 x 10^-2mol% after 20 mins in presence of NaCl loaded external vesicles by fluorescence method
[20] = Ionophoric activity across lucigenin probe encapsulated pH 7 egg yolk L-alpha-phosphatidylcholine-based large unilamellar vesicles loaded with Na2SO4 assessed as chloride ion efflux at 1.56 x 10^-2mol% after 20 mins in presence of NaCl/Na2SO4 loaded external vesicles by fluorescence method
[21] = Ionophoric activity across pyranine dye encapsulated pH 7 POPC-cholesterol-based liposomal membranes assessed as chloride ion transport by measuring induction of pH discharge at 7.81 x 10^-3mol% after 20 mins in presence of NaCl loaded external vesicles by fluorescence method
[22] = system: HeLa; experiment: Cytotoxicity against human HeLa cells assessed as reduction in cell viability at 50 uM after 48 hrs by MTT assay relative to control; assay type: functional
[23] = system: A549; experiment: Cytotoxicity against human A549 cells assessed as reduction in cell viability at 50 uM after 48 hrs by MTT assay relative to control; assay type: functional; settings: A549, 48 h
[24] = system: MCF7; experiment: Cytotoxicity against human MCF7 cells assessed as reduction in cell viability at 50 uM after 48 hrs by MTT assay relative to control; assay type: functional; settings: MCF7, 48 h
[25] = system: HepG2; experiment: Cytotoxicity against human HepG2 cells assessed as reduction in cell viability at 50 uM after 48 hrs by MTT assay relative to control; assay type: functional; settings: HepG2, 48 h
[26] = system: HeLa; experiment: Cytotoxicity against human HeLa cells assessed as reduction in cell viability after 48 hrs by MTT assay; assay type: functional, cell-based
[27] = system: A549; experiment: Cytotoxicity against human A549 cells assessed as reduction in cell viability after 48 hrs by MTT assay; assay type: functional, cell-based; settings: A549, 48 h
[28] = system: MCF7; experiment: Cytotoxicity against human MCF7 cells assessed as reduction in cell viability after 48 hrs by MTT assay; assay type: functional, cell-based; settings: MCF7, 48 h
[29] = system: HepG2; experiment: Cytotoxicity against human HepG2 cells assessed as reduction in cell viability after 48 hrs by MTT assay; assay type: functional, cell-based; settings: HepG2, 48 h
[30] = system: L02; experiment: Cytotoxicity against human LO2 cells assessed as reduction in cell viability after 48 hrs by MTT assay; assay type: cell-based; settings: L02, 48 h
[31] = as §1, with “measuring initial rate constant for” for “measuring”, “discharge at 0.0625 mol%” for “discharge”, “method (reference value: 5.03 +/- 1.02 10^-3/min)” for “method”
[32] = as §1, with “measuring initial rate constant for” for “measuring”, “discharge at 0.1250 mol%” for “discharge”, “method (reference value: 5.03 +/- 1.02 10^-3/min)” for “method”
[33] = as §1, with “measuring initial rate constant for” for “measuring”, “discharge at 0.2500 mol%” for “discharge”, “method (reference value: 5.03 +/- 1.02 10^-3/min)” for “method”
[34] = as §1, with “measuring initial rate constant for” for “measuring”, “discharge at 0.5 mol%” for “discharge”, “method (reference value: 5.03 +/- 1.02 10^-3/min)” for “method”
[35] = as §1, with “measuring initial rate constant for” for “measuring”, “discharge at 1.0 mol%” for “discharge”, “method (reference value: 5.03 +/- 1.02 10^-3/min)” for “method”
[36] = Ionophoric activity across lucigenin probe encapsulated pH 7 egg yolk L-alpha-phosphatidylcholine-based large unilamellar vesicles loaded with NaNO3 assessed as chloride ion efflux at 0.0625 to 1 mol% after 20 mins in presence of NaCl loaded external vesicles by fluorescence method
[37] = Ionophoric activity across pyranine dye encapsulated pH 7 egg yolk L-alpha-phosphatidylcholine-based liposomal membranes assessed as chloride ion transport by measuring induction of pH discharge at 0.25 mol% after 20 mins in presence of LiCl loaded external vesicles by fluorescence method
[38] = Ionophoric activity across pyranine dye encapsulated pH 7 egg yolk L-alpha-phosphatidylcholine-based liposomal membranes assessed as chloride ion transport by measuring induction of pH discharge at 0.25 mol% after 20 mins in presence of NaCl loaded external vesicles by fluorescence method
[39] = Ionophoric activity across pyranine dye encapsulated pH 7 egg yolk L-alpha-phosphatidylcholine-based liposomal membranes assessed as chloride ion transport by measuring induction of pH discharge at 0.25 mol% after 20 mins in presence of KCl loaded external vesicles by fluorescence method
[40] = Ionophoric activity across pyranine dye encapsulated pH 7 egg yolk L-alpha-phosphatidylcholine-based liposomal membranes assessed as chloride ion transport by measuring induction of pH discharge at 0.25 mol% after 20 mins in presence of RbCl loaded external vesicles by fluorescence method
[41] = Ionophoric activity across pyranine dye encapsulated pH 7 egg yolk L-alpha-phosphatidylcholine-based liposomal membranes assessed as chloride ion transport by measuring induction of pH discharge at 0.25 mol% after 20 mins in presence of CsCl loaded external vesicles by fluorescence method
[42] = Ionophoric activity across pyranine dye encapsulated pH 7 egg yolk L-alpha-phosphatidylcholine-based liposomal membranes assessed as iodide ion transport by measuring induction of pH discharge at 0.25 mol% after 20 mins in presence of NaI loaded external vesicles by fluorescence method
[43] = Ionophoric activity across pyranine dye encapsulated pH 7 egg yolk L-alpha-phosphatidylcholine-based liposomal membranes assessed as nitrate ion transport by measuring induction of pH discharge at 0.25 mol% after 20 mins in presence of NaNO3 loaded external vesicles by fluorescence method
[44] = Ionophoric activity across pyranine dye encapsulated pH 7 egg yolk L-alpha-phosphatidylcholine-based liposomal membranes assessed as bromide ion transport by measuring induction of pH discharge at 0.25 mol% after 20 mins in presence of NaBr loaded external vesicles by fluorescence method
[45] = Ionophoric activity across lucigenin probe encapsulated pH 7 egg yolk L-alpha-phosphatidylcholine-based large unilamellar vesicles loaded with Na2SO4 assessed as chloride ion efflux at 1 mol% after 20 mins in presence of NaCl loaded external vesicles by fluorescence method
[46] = Ionophoric activity across lucigenin probe encapsulated pH 7 egg yolk L-alpha-phosphatidylcholine-based large unilamellar vesicles loaded with Na2SO4 assessed as chloride ion efflux at 1 mol% after 20 mins in presence of NaCl/Na2SO4 loaded external vesicles by fluorescence method
[47] = Ionophoric activity across pyranine dye encapsulated pH 7 POPC-cholesterol-based liposomal membranes assessed as chloride ion transport by measuring induction of pH discharge at 1 mol% after 20 mins in presence of NaCl loaded external vesicles by fluorescence method

Activity [1]: Active
Ka [2]: 8.18 ×10³ /M
Activity [3]: Dose-dependent effect
EC50 [3]: 2.73 ×10⁻³ mol%
EC50 ([3]; read-out: EC50): 0.036 µM
K [4]: 2.43 ×10⁻² /min
K [5]: 6.25 ×10⁻² /min
K [6]: 8.98 ×10⁻² /min
K [7]: 1.35 ×10⁻² /min
K [8]: 1.81 ×10⁻¹ /min
K [9]: 1.99 ×10⁻¹ /min
fold change (FC) [10]: 2370
Activity [11]: Active
Activity [12]: Active
Activity [13]: Active
Activity [14]: Active
Activity [15]: Active
Activity [16]: inactive
Activity [17]: inactive
Activity [18]: inactive
Activity [19]: inactive
Activity [20]: inactive
Activity [21]: inactive
Structure (SMILES): O=[N+]([O-])c1cc(-c2nc3ccc([N+](=O)[O-])cc3[nH]2)cc(-c2nc3ccc([N+](=O)[O-])cc3[nH]2)c1
inhibition at 50 µM [22]: 94.1%
inhibition at 50 µM [23]: 78.7%
inhibition at 50 µM [24]: 94.7%
inhibition at 50 µM [25]: 81.3%
IC50 [26]: 1.2 to 1.3 µM
IC50 [27]: 13.6 µM
IC50 [28]: 1.2 µM
IC50 [29]: 11.1 µM
IC50 [30]: 44.9 µM

Activity [1]: Active
Ka [2]: 3.94 ×10³ /M
Activity [3]: Dose-dependent effect
EC50 [3]: 0.49 mol%
EC50 ([3]; read-out: EC50): 6.5 µM
K [31]: 3.38 ×10⁻² /min
K [32]: 4.89 ×10⁻² /min
K [33]: 6.81 ×10⁻² /min
K [34]: 1.28 ×10⁻¹ /min
K [35]: 1.61 ×10⁻¹ /min
Activity [36]: Active
fold change (FC) [10]: 13
Activity [37]: Active
Activity [38]: Active
Activity [39]: Active
Activity [40]: Active
Activity [41]: Active
Activity [42]: inactive
Activity [43]: inactive
Activity [44]: inactive
Activity [45]: inactive
Activity [46]: inactive
Activity [47]: inactive
Structure (SMILES): O=[N+]([O-])c1cc(-c2nc3ccccc3[nH]2)cc(-c2nc3ccccc3[nH]2)c1
inhibition at 50 µM [22]: 42.5%
inhibition at 50 µM [23]: 45.9%
inhibition at 50 µM [24]: 48.2%
inhibition at 50 µM [25]: -2.6%
